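Exposure lasted 48 hours, with cells grown in 96-well plates and compounds tested at five concentrations. TGI: total growth inhibition.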
Assays:
Experiment in all cases: NCI tumour cell line growth inhibition, 48 h
BT-549 breast = system: BT-549 breast
CAKI-1 renal = system: CAKI-1 renal
CCRF-CEM leukemia = system: CCRF-CEM leukemia
COLO 205 colon = system: COLO 205 colon
DLD-1 colon = system: DLD-1 colon
DMS 114 small cell lung = system: DMS 114 small cell lung
DMS 273 small cell lung = system: DMS 273 small cell lung
DU-145 prostate = system: DU-145 prostate
HL-60(TB) leukemia = system: HL-60(TB) leukemia
HOP-18 NSCLC = system: HOP-18 NSCLC
HOP-62 NSCLC = system: HOP-62 NSCLC
HOP-92 NSCLC = system: HOP-92 NSCLC
HS 578T breast = system: HS 578T breast
IGROV1 ovarian = system: IGROV1 ovarian
K-562 leukemia = system: K-562 leukemia
KM12 colon = system: KM12 colon
KM20L2 colon = system: KM20L2 colon
LXFL 529 NSCLC = system: LXFL 529 NSCLC
M19-MEL melanoma = system: M19-MEL melanoma
MCF7 breast = system: MCF7 breast
MDA-MB-231 breast = system: MDA-MB-231 breast
MDA-N = system: MDA-N
MOLT-4 leukemia = system: MOLT-4 leukemia
NCI-H226 lung = system: NCI-H226 lung
NCI-H460 lung = system: NCI-H460 lung
NCI/ADR-RES ovarian = system: NCI/ADR-RES ovarian
OVCAR-3 ovarian = system: OVCAR-3 ovarian
OVCAR-4 ovarian = system: OVCAR-4 ovarian
OVCAR-8 ovarian = system: OVCAR-8 ovarian
PC-3 prostate = system: PC-3 prostate
RPMI-8226 leukemia = system: RPMI-8226 leukemia
RXF 393 renal = system: RXF 393 renal
SF-295 CNS = system: SF-295 CNS
SK-MEL-2 melanoma = system: SK-MEL-2 melanoma
SK-OV-3 ovarian = system: SK-OV-3 ovarian
SNB-19 CNS = system: SNB-19 CNS
SNB-75 CNS = system: SNB-75 CNS
SNB-78 CNS = system: SNB-78 CNS
SR leukemia = system: SR leukemia
T-47D breast = system: T-47D breast
XF 498 CNS = system: XF 498 CNS
786-0 renal = system: 786-0 renal
A498 renal = system: A498 renal
A549 NSCLC = system: A549 NSCLC
ACHN renal = system: ACHN renal
EKVX NSCLC = system: EKVX NSCLC
HCC-2998 colon = system: HCC-2998 colon
HCT-116 colon = system: HCT-116 colon
HCT-15 colon = system: HCT-15 colon
HT29 colon = system: HT29 colon
LOX IMVI melanoma = system: LOX IMVI melanoma
M14 melanoma = system: M14 melanoma
MALME-3M melanoma = system: MALME-3M melanoma
NCI-H23 lung = system: NCI-H23 lung
OVCAR-5 ovarian = system: OVCAR-5 ovarian
RXF-631 renal = system: RXF-631 renal
SF-539 CNS = system: SF-539 CNS
SK-MEL-28 melanoma = system: SK-MEL-28 melanoma
SK-MEL-5 melanoma = system: SK-MEL-5 melanoma
SN12C renal = system: SN12C renal
SW-620 colon = system: SW-620 colon
TK-10 renal = system: TK-10 renal
U251 CNS = system: U251 CNS
UACC-257 melanoma = system: UACC-257 melanoma
UACC-62 melanoma = system: UACC-62 melanoma
UO-31 renal = system: UO-31 renal

COC(=O)C1c2cc3c(c(O)c2C(O)CC1(C)O)C(=O)c1c(O)cc2c(c1C3=O)OC1OC2(C)C(O)C(N(C)C)C1O (centres undefined)
TGI (BT-549 breast): 17.7 µM
TGI (CAKI-1 renal): 14.2 µM
TGI (CCRF-CEM leukemia): > 100 µM
TGI (COLO 205 colon): > 32.4 µM
TGI (DLD-1 colon): > 100 µM
TGI (DMS 114 small cell lung): > 100 µM
TGI (DMS 273 small cell lung): > 100 µM
TGI (DU-145 prostate): 3.44 µM
TGI (HL-60(TB) leukemia): > 24.9 µM
TGI (HOP-18 NSCLC): > 100 µM
TGI (HOP-62 NSCLC): > 100 µM
TGI (HOP-92 NSCLC): > 76.6 µM
TGI (HS 578T breast): 7.21 µM
TGI (IGROV1 ovarian): > 39.7 µM
TGI (K-562 leukemia): > 100 µM
TGI (KM12 colon): > 19.9 µM
TGI (KM20L2 colon): > 100 µM
TGI (LXFL 529 NSCLC): > 100 µM
TGI (M19-MEL melanoma): > 100 µM
TGI (MCF7 breast): 2.63 µM
TGI (MDA-MB-231 breast): 2.64 µM
TGI (MDA-N): 2.91 µM
TGI (MOLT-4 leukemia): > 100 µM
TGI (NCI-H226 lung): > 31.9 µM
TGI (NCI-H460 lung): > 100 µM
TGI (NCI/ADR-RES ovarian): 3.05 µM
TGI (OVCAR-3 ovarian): > 100 µM
TGI (OVCAR-4 ovarian): > 100 µM
TGI (OVCAR-8 ovarian): > 100 µM
TGI (PC-3 prostate): 2.43 µM
TGI (RPMI-8226 leukemia): > 100 µM
TGI (RXF 393 renal): > 100 µM
TGI (SF-295 CNS): > 100 µM
TGI (SK-MEL-2 melanoma): > 100 µM
TGI (SK-OV-3 ovarian): > 27.8 µM
TGI (SNB-19 CNS): > 100 µM
TGI (SNB-75 CNS): > 20.9 µM
TGI (SNB-78 CNS): > 100 µM
TGI (SR leukemia): > 100 µM
TGI (T-47D breast): 4.6 µM
TGI (XF 498 CNS): > 100 µM

c1ccc(-c2nnc3nn4c(-c5ccccc5)cnnc4c3c2-c2ccccc2)cc1
TGI (786-0 renal): 25.8 µM
TGI (A498 renal): > 100 µM
TGI (A549 NSCLC): > 100 µM
TGI (ACHN renal): > 100 µM
TGI (CAKI-1 renal): 45.6 µM
TGI (CCRF-CEM leukemia): > 100 µM
TGI (DLD-1 colon): > 100 µM
TGI (DMS 114 small cell lung): > 100 µM
TGI (DMS 273 small cell lung): > 100 µM
TGI (EKVX NSCLC): 70.9 µM
TGI (HCC-2998 colon): > 100 µM
TGI (HCT-116 colon): > 100 µM
TGI (HCT-15 colon): > 100 µM
TGI (HL-60(TB) leukemia): > 100 µM
TGI (HOP-18 NSCLC): > 100 µM
TGI (HOP-92 NSCLC): > 100 µM
TGI (HT29 colon): > 100 µM
TGI (K-562 leukemia): > 100 µM
TGI (KM12 colon): > 100 µM
TGI (KM20L2 colon): > 100 µM
TGI (LOX IMVI melanoma): > 100 µM
TGI (LXFL 529 NSCLC): > 100 µM
TGI (M14 melanoma): > 100 µM
TGI (M19-MEL melanoma): > 100 µM
TGI (MALME-3M melanoma): > 100 µM
TGI (MOLT-4 leukemia): > 100 µM
TGI (NCI-H226 lung): > 100 µM
TGI (NCI-H23 lung): > 100 µM
TGI (NCI-H460 lung): > 100 µM
TGI (OVCAR-3 ovarian): > 100 µM
TGI (OVCAR-4 ovarian): 42.5 µM
TGI (OVCAR-5 ovarian): > 100 µM
TGI (OVCAR-8 ovarian): > 100 µM
TGI (RPMI-8226 leukemia): > 100 µM
TGI (RXF 393 renal): 46.3 µM
TGI (RXF-631 renal): 66.7 µM
TGI (SF-295 CNS): > 100 µM
TGI (SF-539 CNS): 99.5 µM
TGI (SK-MEL-2 melanoma): > 100 µM
TGI (SK-MEL-28 melanoma): > 100 µM
TGI (SK-MEL-5 melanoma): > 100 µM
TGI (SN12C renal): > 100 µM
TGI (SNB-19 CNS): 61.2 µM
TGI (SNB-75 CNS): 83.9 µM
TGI (SNB-78 CNS): > 100 µM
TGI (SR leukemia): > 100 µM
TGI (SW-620 colon): > 100 µM
TGI (TK-10 renal): 83.1 µM
TGI (U251 CNS): > 100 µM
TGI (UACC-257 melanoma): > 100 µM
TGI (UACC-62 melanoma): > 100 µM
TGI (UO-31 renal): 75.1 µM
TGI (XF 498 CNS): 57.1 µM

— PubChem BioAssay (NCI)
